Where two headings read alike, the source gives them in different places.
Key:
[1] = tested on: Aβ40 in conditioned medium of cells stably expressing Amyloid Precursor Protein (APP); assay: In vitro BACE cell-based assay (Aβ40 sandwich ELISA); conditions: Homo sapiens
Outline: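 Aβ40 in supernatants was measured by time-resolved fluorescence sandwich ELISA using pAb40 capture and biotinylated 6E10 detection, with antibody incubations at 4 °C. Stable APP cells were exposed to compounds for 24 h in a 10-point series (top dose 100 or 10 µM, 0.1% DMSO). IC50 was fitted from the concentration-response.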

[2] = target: Beta Secretase enzyme (BACE) (Homo sapiens (Human), UniProt P56817); assay: In vitro enzymatic BACE FRET assay; type: biochemical; conditions: read-out: BACE 1 FRET assay IC50
Beta Secretase enzyme (BACE), sequence (P56817 46-501): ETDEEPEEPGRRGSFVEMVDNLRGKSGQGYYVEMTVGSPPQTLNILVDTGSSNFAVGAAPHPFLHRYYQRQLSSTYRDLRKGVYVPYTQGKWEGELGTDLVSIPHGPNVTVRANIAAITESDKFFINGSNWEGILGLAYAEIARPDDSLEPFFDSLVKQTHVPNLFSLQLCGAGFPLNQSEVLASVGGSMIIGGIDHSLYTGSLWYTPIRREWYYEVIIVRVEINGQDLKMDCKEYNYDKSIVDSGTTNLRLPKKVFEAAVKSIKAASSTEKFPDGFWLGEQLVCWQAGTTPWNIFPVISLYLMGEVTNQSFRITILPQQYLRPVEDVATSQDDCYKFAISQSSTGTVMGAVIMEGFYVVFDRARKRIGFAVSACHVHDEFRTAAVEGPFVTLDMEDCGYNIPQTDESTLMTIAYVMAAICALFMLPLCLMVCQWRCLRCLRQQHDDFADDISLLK
Outline: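 A quenched fluorophore-peptide spanning the BACE cleavage site served as substrate at 50 nM, with one-hour incubation in pH 4.2 acetate buffer containing 100 uM genapol and 10% DMSO final. Fluorescence was measured after quenching with Tris to neutral pH.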

Cathepsin D (Cat D) = Cathepsin D (Cat D) (Homo sapiens (Human), UniProt P07339); assay: In vitro enzymatic Cathepsin D (Cat D) FRET assay; type: biochemical; conditions: read-out: CatD IC50
Cathepsin D (Cat D), sequence (P07339 65-412, species assumed): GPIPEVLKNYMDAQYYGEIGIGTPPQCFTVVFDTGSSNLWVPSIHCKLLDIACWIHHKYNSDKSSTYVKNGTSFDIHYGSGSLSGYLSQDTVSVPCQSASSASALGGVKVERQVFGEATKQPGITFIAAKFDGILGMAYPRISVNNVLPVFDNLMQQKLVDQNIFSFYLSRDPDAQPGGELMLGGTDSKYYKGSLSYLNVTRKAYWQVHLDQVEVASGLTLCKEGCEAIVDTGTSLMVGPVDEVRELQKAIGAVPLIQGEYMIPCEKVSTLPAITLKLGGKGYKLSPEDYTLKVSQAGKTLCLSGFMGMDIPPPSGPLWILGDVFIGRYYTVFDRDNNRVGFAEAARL
Outline: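 CHO-expressed recombinant Cat D cleaves a fluorophore/quencher FRET peptide (20 nM) in 0.05 M citrate pH 3.5, 5 mM CHAPS, 10% DMSO final, over 1 h. Tris addition neutralizes pH to stop the reaction; fluorescence read at excitation 500 nm, emission 580 nm.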

[3] = HEK293, HEK cells, average, read-out: HEK cell assay IC50
[4] = HEK293, average IC50, HEK cell assay, read-out: HEK cell assay IC50
[5] = average IC50, BACE enzyme assay
[6] = average IC50, cathepsin D enzyme assay
[7] = HEK293, average IC50, HEK cells, read-out: HEK cell assay IC50
[8] = HEK293, read-out: HEK cell assay IC50

Row | Compound | IC50 [1, 7] [µM] | IC50 ([2]; average IC50) [µM] | IC50 (Cathepsin D (Cat D); average IC50) [µM] | also measured
1 | NC1=N[C@](CF)(c2cc(C#Cc3ccc(OC4CCC4)cn3)ccc2F)C[C@@H](C(F)(F)F)O1 [Example 128, (4S,6S)-4-(5-((5-cyclobutoxypyridin-2-yl)ethynyl)-2-fluorophenyl)-4-(fluoromethyl)-6-(trifluoromethyl)-5,6-dihydro-4H-1,3-oxazin-2-amine] | – | – | – | IC50 [1, 3]: 5.98 µM; IC50 ([2]; average): 20.5 µM; IC50 (Cathepsin D (Cat D); average): 1060 µM
2 | CNC(=O)c1ccnc(C#Cc2ccc(F)c([C@]3(CF)C[C@@H](C(F)(F)F)OC(N)=N3)c2)c1 [Example 129, 2-((3-((4S,6S)-2-amino-4-(fluoromethyl)-6-(trifluoromethyl)-5,6-dihydro-4H-1,3-oxazin-4-yl)-4-fluorophenyl)ethynyl)-N-methylisonicotinamide] | – | – | – | IC50 [1, 3]: > 15.6 µM; IC50 ([2]; average): > 40 µM; IC50 (Cathepsin D (Cat D); average): > 400 µM
3 | NC1=N[C@](CF)(c2cc(C#Cc3cccc4[nH]ccc34)ccc2F)C[C@@H](C(F)(F)F)O1 [Example 130, (4S,6S)-4-(5-((1H-indol-4-yl)ethynyl)-2-fluorophenyl)-4-(fluoromethyl)-6-(trifluoromethyl)-5,6-dihydro-4H-1,3-oxazin-2-amine] | – | – | – | IC50 [1, 3]: 2.08 µM; IC50 ([2]; average): 5.62 µM; IC50 (Cathepsin D (Cat D); average): 578 µM
4 | NC1=N[C@](CF)(c2cc(C#Cc3ccc4[nH]ccc4c3)ccc2F)C[C@@H](C(F)(F)F)O1 [Example 131, (4S,6S)-4-(5-((1H-indol-5-yl)ethynyl)-2-fluorophenyl)-4-(fluoromethyl)-6-(trifluoromethyl)-5,6-dihydro-4H-1,3-oxazin-2-amine] | – | – | – | IC50 [1, 3]: 1.81 µM; IC50 ([2]; average): 0.577 µM; IC50 (Cathepsin D (Cat D); average): 381 µM
5 | NC1=N[C@](CF)(c2cc(C#Cc3ccc4cc[nH]c4c3)ccc2F)C[C@@H](C(F)(F)F)O1 [Example 132, (4S,6S)-4-(5-((1H-indol-6-yl)ethynyl)-2-fluorophenyl)-4-(fluoromethyl)-6-(trifluoromethyl)-5,6-dihydro-4H-1,3-oxazin-2-amine] | – | – | – | IC50 [1, 3]: 3.1 µM; IC50 ([2]; average): 2.2 µM; IC50 (Cathepsin D (Cat D); average): 721 µM
6 | NC1=N[C@](CF)(c2cc(C#Cc3cccc4cc[nH]c34)ccc2F)C[C@@H](C(F)(F)F)O1 [Example 133, (4S,6S)-4-(5-((1H-indol-7-yl)ethynyl)-2-fluorophenyl)-4-(fluoromethyl)-6-(trifluoromethyl)-5,6-dihydro-4H-1,3-oxazin-2-amine] | – | – | – | IC50 [1, 3]: 4.6 µM; IC50 ([2]; average): 5.6 µM; IC50 (Cathepsin D (Cat D); average): 1130 µM
7 | N#Cc1ccc(C(=O)Nc2ccc(F)c([C@]3(CF)C[C@@H](C(F)(F)F)OC(N)=N3)n2)nc1 [Example 134, N-(6-((4S,6S)-2-amino-4-(fluoromethyl)-6-(trifluoromethyl)-5,6-dihydro-4H-1,3-oxazin-4-yl)-5-fluoropyridin-2-yl)-5-cyanopicolinamide] | – | – | – | IC50 [1, 4]: 0.055 µM; IC50 [2, 5]: 0.079 µM; IC50 (Cathepsin D (Cat D); [6]): > 400 µM
8 | NC1=N[C@](CF)(c2nc(NC(=O)c3ccc(Cl)cn3)ccc2F)C[C@@H](C(F)(F)F)O1 [Example 136, N-(6-((4S,6S)-2-amino-4-(fluoromethyl)-6-(trifluoromethyl)-5,6-dihydro-4H-1,3-oxazin-4-yl)-5-fluoropyridin-2-yl)-5-chloropicolinamide] | > 15.6 | 32 | > 400 | IC50 [1, 4]: 0.132 µM; IC50 [2, 5]: 0.169 µM; IC50 (Cathepsin D (Cat D); [6]): 717 µM
9 | NC1=N[C@](CF)(c2cc(N)cnc2F)C[C@@H](C(F)(F)F)O1 [Example 138, (4S,6S)-4-(5-amino-2-fluoropyridin-3-yl)-4-(fluoromethyl)-6-(trifluoromethyl)-5,6-dihydro-4H-1,3-oxazin-2-amine] | > 15.6 | > 40 | > 400 | –
10 | NC1=N[C@](CF)(c2cc(NC(=O)c3ccc(Cl)cn3)cnc2F)C[C@@H](C(F)(F)F)O1 [Example 139, N-(5-((4S,6S)-2-amino-4-(fluoromethyl)-6-(trifluoromethyl)-5,6-dihydro-4H-1,3-oxazin-4-yl)-6-fluoropyridin-3-yl)-5-chloropicolinamide] | – | 0.0965 | > 400 | IC50 [1, 8]: 0.418 µM
11 | Cc1cc(C#N)cnc1C(=O)Nc1cnc(F)c([C@]2(CF)C[C@@H](C(F)(F)F)OC(N)=N2)c1 [Example 140, N-(5-((4S,6S)-2-amino-4-(fluoromethyl)-6-(trifluoromethyl)-5,6-dihydro-4H-1,3-oxazin-4-yl)-6-fluoropyridin-3-yl)-5-cyano-3-methylpicolinamide] | 0.338 | 0.113 | > 400 | –
12 | Cn1cc(NC(=O)c2ccc(Cl)cn2)cc([C@]2(C)C[C@@H](C(F)(F)F)OC(N)=N2)c1=O [Example 148, N-(5-((4S,6S)-2-amino-4-methyl-6-(trifluoromethyl)-5,6-dihydro-4H-1,3-oxazin-4-yl)-1-methyl-6-oxo-1,6-dihydropyridin-3-yl)-5-chloropicolinamide] | – | 0.366 | > 400 | IC50 [1, 8]: 0.0127 µM
13 | NC1=N[C@](CF)(c2cc(NC(=O)c3ccc(Cl)cn3)cc(F)c2F)C[C@@H](C(F)(F)F)O1 [Example 152, N-(3-((4S,6S)-2-amino-4-(fluoromethyl)-6-(trifluoromethyl)-5,6-dihydro-4H-1,3-oxazin-4-yl)-4,5-difluorophenyl)-5-chloropicolinamide] | – | – | – | IC50 [1, 4]: 0.087 µM; IC50 [2, 5]: 0.026 µM; IC50 (Cathepsin D (Cat D); [6]): 2750 µM
14 | COc1cnc(C(=O)Nc2cc(F)c(F)c([C@]3(CF)C[C@@H](C(F)(F)F)OC(N)=N3)c2)cn1 [Example 153, N-(3-((4S,6S)-2-amino-4-(fluoromethyl)-6-(trifluoromethyl)-5,6-dihydro-4H-1,3-oxazin-4-yl)-4,5-difluorophenyl)-5-methoxypyrazine-2-carboxamide] | – | – | – | IC50 [1, 4]: 0.126 µM; IC50 [2, 5]: 0.05 µM; IC50 (Cathepsin D (Cat D); [6]): 3360 µM
15 | COc1ccc(C(=O)Nc2cc(F)c(F)c([C@]3(CF)C[C@@H](C(F)(F)F)OC(N)=N3)c2)nc1 [Example 156, N-(3-((4S,6S)-2-amino-4-(fluoromethyl)-6-(trifluoromethyl)-5,6-dihydro-4H-1,3-oxazin-4-yl)-4,5-difluorophenyl)-5-methoxypicolinamide] | – | – | – | IC50 [1, 4]: 0.123 µM; IC50 [2, 5]: 0.062 µM; IC50 (Cathepsin D (Cat D); [6]): > 400 µM

Now from value to compound, other results behind:

Row | IC50 [1, 7] [µM] | IC50 ([2]; average IC50) [µM] | IC50 (Cathepsin D (Cat D); average IC50) [µM] | Compound | also measured
16 | 0.639 | 0.171 | 1790 | N#Cc1ccc(C(=O)Nc2cnc(F)c([C@]3(CF)C[C@@H](C(F)(F)F)OC(N)=N3)c2)nc1 [Example 141, N-(5-((4S,6S)-2-amino-4-(fluoromethyl)-6-(trifluoromethyl)-5,6-dihydro-4H-1,3-oxazin-4-yl)-6-fluoropyridin-3-yl)-5-cyanopicolinamide] | –
17 | 0.587 | 0.114 | 5520 | COc1ccc(C(=O)Nc2cnc(F)c([C@]3(CF)C[C@@H](C(F)(F)F)OC(N)=N3)c2)nc1 [Example 142, N-(5-((4S,6S)-2-amino-4-(fluoromethyl)-6-(trifluoromethyl)-5,6-dihydro-4H-1,3-oxazin-4-yl)-6-fluoropyridin-3-yl)-5-methoxypicolinamide] | –
18 | 0.154 | 0.117 | 2370 | NC1=N[C@](CF)(c2cccc(NC(=O)c3ccc(Cl)cn3)c2)C[C@@H](C(F)(F)F)O1 [Example 143, N-(3-((4S,6S)-2-amino-4-(fluoromethyl)-6-(trifluoromethyl)-5,6-dihydro-4H-1,3-oxazin-4-yl)phenyl)-5-chloropicolinamide] | –
19 | 0.067 | 0.0892 | 665 | N#Cc1ccc(C(=O)Nc2cccc([C@]3(CF)C[C@@H](C(F)(F)F)OC(N)=N3)c2)nc1 [Example 144, N-(3-((4S,6S)-2-amino-4-(fluoromethyl)-6-(trifluoromethyl)-5,6-dihydro-4H-1,3-oxazin-4-yl)phenyl)-5-cyanopicolinamide] | –
20 | 0.119 | 0.067 | 733 | NC1=N[C@](CF)(c2cccc(Nc3nccc4cc(Cl)cnc34)c2)C[C@@H](C(F)(F)F)O1 [Example 146, (4S,6S)-4-(3-((3-chloro-1,7-naphthyridin-8-yl)amino)phenyl)-4-(fluoromethyl)-6-(trifluoromethyl)-5,6-dihydro-4H-1,3-oxazin-2-amine] | –
21 | 0.119 | 0.249 | 1420 | COc1ncc(NC(=O)c2ccc(Cl)cn2)cc1[C@]1(C)C[C@@H](C(F)(F)F)OC(N)=N1 [Example 147, N-(5-((4S,6S)-2-amino-4-methyl-6-(trifluoromethyl)-5,6-dihydro-4H-1,3-oxazin-4-yl)-6-methoxypyridin-3-yl)-5-chloropicolinamide] | –
22 | 0.021 | 0.239 | > 400 | Cn1cc(NC(=O)c2ccc(C#N)cn2)cc([C@]2(C)C[C@@H](C(F)(F)F)OC(N)=N2)c1=O [Example 149, N-(5-((4S,6S)-2-amino-4-methyl-6-(trifluoromethyl)-5,6-dihydro-4H-1,3-oxazin-4-yl)-1-methyl-6-oxo-1,6-dihydropyridin-3-yl)-5-cyanopicolinamide] | –
23 | 0.0101 | 0.121 | > 400 | Cc1cc(C#N)cnc1C(=O)Nc1cc([C@]2(C)C[C@@H](C(F)(F)F)OC(N)=N2)c(=O)n(C)c1 [Example 150, N-(5-((4S,6S)-2-amino-4-methyl-6-(trifluoromethyl)-5,6-dihydro-4H-1,3-oxazin-4-yl)-1-methyl-6-oxo-1,6-dihydropyridin-3-yl)-5-cyano-3-methylpicolinamide] | –

— patent US9296734B2 (AMGEN INC., priority 2013, dated 2016)
